IC50 and viability, T/C data for four compounds are collected here from PubChem BioAssay AID1845216 (Molecular Pharmacology Branch, DTP, NCI, 2023).

SMILES strings stand for the structures. “And” between values parts separate entries of the source, which are not always exact repeats. Identical values can stand only once.

The test system of the assay is SW 982 tumor spheroid viability. Kind of assay: Anticancer human tumor SW 982 cell line growth inhibition.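 As to all read-outs here: spheroids exposed to compound for 7 days before readout.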 Conditions: spheroids with HUVEC and MSC; for viability, T/C: stronger effect = lower value. In a few lines:
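Complex tumor spheroids combined malignant cells with endothelial cells and mesenchymal stem cells. DNA-damaging drugs and DNA repair inhibitors were tested alone and in combination, at half-log dilutions down from clinical Cmax (top 10 microM if Cmax unknown), 0.25% DMSO final.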

Where [1] appears, read: curve of first compound, second compound 1 µM.
The mark [2] stands for this setting: curve of first compound, second compound 3.16 µM.
[3] abbreviates: curve of first compound, second compound 10 µM.
The mark [4] stands for this setting: curve of first compound, second compound 31.6 µM.
[5] abbreviates: curve of first compound, second compound 100 µM.

Broadly, the IC50 is the concentration that gives 50% inhibition. The term viability, T/C denotes the ratio of treated to control. On to `Cc1sc2c(c1C)C(c1ccc(Cl)cc1)=NC(CC(=O)Nc1ccc(O)cc1)c1nnc(C)n1-2` (centres undefined) + Cn1nnc2c(C(N)=O)ncn2c1=O, for which the IC50 reads like this: under setting [1], 294 nM; under setting [2], 240 nM; under setting [3], 158 nM; under setting [4], 106 nM; under setting [5], 92.2 nM. The viability, T/C (second compound 1 µM, first compound 0.00949 µM) was 113%; the viability, T/C (second compound 1 µM, first compound 0.03 µM) was 101%; the viability, T/C (second compound 1 µM, first compound 0.0949 µM) is 78.2%; the viability, T/C (second compound 1 µM, first compound 0.3 µM) was 47.6%; the viability, T/C (second compound 1 µM, first compound 0.949 µM) was 35%; the viability, T/C (second compound 1 µM, first compound 3 µM) is 25%. The viability, T/C is, setting by setting: (second compound 3.16 µM, first compound 0.00949 µM) 103%; (second compound 3.16 µM, first compound 0.03 µM) 104%; (second compound 3.16 µM, first compound 0.0949 µM) 76.6%; (second compound 3.16 µM, first compound 0.3 µM) 43.8%; (second compound 3.16 µM, first compound 0.949 µM) 27.7%; (second compound 3.16 µM, first compound 3 µM) 21.4%. Besides, the viability, T/C (second compound 10 µM, first compound 0.00949 µM) is 87.8%; the viability, T/C (second compound 10 µM, first compound 0.03 µM) is 81%; the viability, T/C (second compound 10 µM, first compound 0.0949 µM) was 60.8%; the viability, T/C (second compound 10 µM, first compound 0.3 µM) is 36.4%; the viability, T/C (second compound 10 µM, first compound 0.949 µM) is 21.6%; the viability, T/C (second compound 10 µM, first compound 3 µM) was 17.8%. The viability, T/C (second compound 31.6 µM, first compound 0.00949 µM) is 76.2%; the viability, T/C (second compound 31.6 µM, first compound 0.03 µM) was 67.6%; the viability, T/C (second compound 31.6 µM, first compound 0.0949 µM) is 53.9%; the viability, T/C (second compound 31.6 µM, first compound 0.3 µM) was 27.8%; the viability, T/C (second compound 31.6 µM, first compound 0.949 µM) is 19.7%; the viability, T/C (second compound 31.6 µM, first compound 3 µM) is 14.7%. Further, the viability, T/C (second compound 100 µM, first compound 0.00949 µM) is 67.7%; the viability, T/C (second compound 100 µM, first compound 0.03 µM) was 66.4%; the viability, T/C (second compound 100 µM, first compound 0.0949 µM) was 49.6%; the viability, T/C (second compound 100 µM, first compound 0.3 µM) was 21.2%; the viability, T/C (second compound 100 µM, first compound 0.949 µM) was 16.1%; the viability, T/C (second compound 100 µM, first compound 3 µM) was 20.6%.

Consider `CNCc1ccc(-c2cc(-c3nc(-c4ccc(S(=O)(=O)C(C)C)cc4)cnc3N)on2)cc1`, for which the viability, T/C by setting is: (compound 0.00949 µM) 94.4% and 97.7% and 104%; (compound 0.03 µM) 94.6% and 94.9% and 100%; (compound 0.0949 µM) 78.7% and 84% and 84.3%; (compound 0.3 µM) 43.7% and 49.3% and 31.1%; (compound 0.949 µM) 28% and 32.8% and 19.9%; (compound 3 µM) 13.5% and 17.2% and 2.19%. The IC50 (curve of compound) was 263 nM and 341 nM and 205 nM.

`CC[C@@]1(O)C(=O)OCc2c1cc1n(c2=O)Cc2cc3c(CN(C)C)c(O)ccc3nc2-1`: the viability, T/C runs as follows: (compound 0.003 µM) 93.7% [middle of 10 runs]; (compound 0.00949 µM) 87.9% [middle of 10 runs]; (compound 0.03 µM) 81.2% [middle of 10 runs]; (compound 0.0949 µM) 70.1% [middle of 10 runs]; (compound 0.3 µM) 51.5% [middle of 10 runs]. The IC50 reads like this: (compound alone, run of 12/02/2019) > 300 nM and 283 nM; (compound alone, run of 12/12/2019) > 300 nM and 252 nM and 286 nM.

On to `COc1ccc([C@@H](O)c2cc(-c3ncnc4cc(N5CCOCC5)ccc34)c(F)cc2Cl)nn1` + Cn1nnc2c(C(N)=O)ncn2c1=O, for which the IC50 reads like this: under setting [1], 6290 nM; under setting [2], 3830 nM; under setting [3], 4030 nM; under setting [4], 1180 nM; under setting [5], 283 nM. For the same compound, the viability, T/C reads like this: (second compound 1 µM, first compound 0.0316 µM) 90.6%; (second compound 1 µM, first compound 0.1 µM) 95.4%; (second compound 1 µM, first compound 0.316 µM) 93.3%; (second compound 1 µM, first compound 1 µM) 84.9%; (second compound 1 µM, first compound 3.16 µM) 81.6%; (second compound 1 µM, first compound 10 µM) 29.6%. The viability, T/C is, setting by setting: (second compound 3.16 µM, first compound 0.0316 µM) 76.7%; (second compound 3.16 µM, first compound 0.1 µM) 83.8%; (second compound 3.16 µM, first compound 0.316 µM) 90.1%; (second compound 3.16 µM, first compound 1 µM) 70.4%; (second compound 3.16 µM, first compound 3.16 µM) 55.9%; (second compound 3.16 µM, first compound 10 µM) 26%. For the same compound, the viability, T/C (second compound 10 µM, first compound 0.0316 µM) was 76.9%; the viability, T/C (second compound 10 µM, first compound 0.1 µM) is 70%; the viability, T/C (second compound 10 µM, first compound 0.316 µM) was 73%; the viability, T/C (second compound 10 µM, first compound 1 µM) was 57.6%; the viability, T/C (second compound 10 µM, first compound 3.16 µM) is 63.2%; the viability, T/C (second compound 10 µM, first compound 10 µM) is 18.4%. Further, the viability, T/C by setting is: (second compound 31.6 µM, first compound 0.0316 µM) 63.5%; (second compound 31.6 µM, first compound 0.1 µM) 63.2%; (second compound 31.6 µM, first compound 0.316 µM) 60.4%; (second compound 31.6 µM, first compound 1 µM) 51.5%; (second compound 31.6 µM, first compound 3.16 µM) 38.5%; (second compound 31.6 µM, first compound 10 µM) 25.5%. Besides, the viability, T/C runs as follows: (second compound 100 µM, first compound 0.0316 µM) 59.9%; (second compound 100 µM, first compound 0.1 µM) 57.9%; (second compound 100 µM, first compound 0.316 µM) 48.1%; (second compound 100 µM, first compound 1 µM) 39.3%; (second compound 100 µM, first compound 3.16 µM) 32.5%; (second compound 100 µM, first compound 10 µM) 15.6%.
